Measurements as given in article PMC10810011 (Expert opinion on drug delivery, 2023).

What was measured:
[1] = tested on: HC-CSC (human colon cancer stem cells); assay: MTT cytotoxicity, 2D HC-CSC; assay type: cell-based; details: 24 h
pKa determination = assay type: physicochemical; details: UV metric at pH 2–12
[2] = Kinetic solubility in pure water; assay type: physicochemical; details: room temperature, 24 h
CD-1 mice = assay: Single-dose maximum tolerated dose; assay type: in vivo, mouse
AHR-activation = target: T1, AHR-activation (Homo sapiens, UniProt P35869); assay: InVEST fluorescence polarization binding/cell-based activity, AHR-activation; details: M13 20 μM, 100 = no effect
T1 sequence (P35869 11-848): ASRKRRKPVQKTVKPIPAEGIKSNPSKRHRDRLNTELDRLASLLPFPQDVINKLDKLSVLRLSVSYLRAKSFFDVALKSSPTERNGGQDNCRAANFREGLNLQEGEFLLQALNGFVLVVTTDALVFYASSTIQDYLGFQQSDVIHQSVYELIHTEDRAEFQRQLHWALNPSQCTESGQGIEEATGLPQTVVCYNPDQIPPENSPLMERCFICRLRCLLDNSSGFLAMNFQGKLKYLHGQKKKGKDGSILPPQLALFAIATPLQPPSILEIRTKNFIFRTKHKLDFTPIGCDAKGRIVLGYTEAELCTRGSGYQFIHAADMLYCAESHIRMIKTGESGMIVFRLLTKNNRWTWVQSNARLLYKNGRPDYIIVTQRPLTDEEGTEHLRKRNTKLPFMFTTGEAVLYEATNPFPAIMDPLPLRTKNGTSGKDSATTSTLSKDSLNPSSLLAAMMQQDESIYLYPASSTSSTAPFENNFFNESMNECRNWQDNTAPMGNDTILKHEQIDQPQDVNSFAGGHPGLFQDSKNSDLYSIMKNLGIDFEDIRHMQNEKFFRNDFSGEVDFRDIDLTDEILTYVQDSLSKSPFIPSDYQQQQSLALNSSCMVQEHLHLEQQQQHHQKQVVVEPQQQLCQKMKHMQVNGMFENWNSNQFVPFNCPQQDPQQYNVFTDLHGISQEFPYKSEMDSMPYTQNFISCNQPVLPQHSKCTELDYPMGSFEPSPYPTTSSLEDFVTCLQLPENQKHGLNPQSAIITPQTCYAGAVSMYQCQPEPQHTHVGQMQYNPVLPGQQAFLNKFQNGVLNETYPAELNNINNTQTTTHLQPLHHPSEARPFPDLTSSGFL

Caco-2/BBe cells = assay: Cancer-related protein expression, Human XL oncology array; assay type: cell-based; details: Caco-2/BBe lysates, 24 h; free M13 5 μg/mL, M13-NL 10 μg/mL (5 μg/mL M13)
Thrombin alpha = Thrombin alpha (Homo sapiens, UniProt P00734); assay: InVEST enzymatic activity, Thrombin alpha; assay type: biochemical; details: M13 20 μM, 100 = no effect
Opioid mu = Opioid mu (Homo sapiens, UniProt P35372); assay: InVEST radioligand filter binding, Opioid mu; details: M13 20 μM, 100 = no effect
Sequence of Opioid mu (P35372 whole entry): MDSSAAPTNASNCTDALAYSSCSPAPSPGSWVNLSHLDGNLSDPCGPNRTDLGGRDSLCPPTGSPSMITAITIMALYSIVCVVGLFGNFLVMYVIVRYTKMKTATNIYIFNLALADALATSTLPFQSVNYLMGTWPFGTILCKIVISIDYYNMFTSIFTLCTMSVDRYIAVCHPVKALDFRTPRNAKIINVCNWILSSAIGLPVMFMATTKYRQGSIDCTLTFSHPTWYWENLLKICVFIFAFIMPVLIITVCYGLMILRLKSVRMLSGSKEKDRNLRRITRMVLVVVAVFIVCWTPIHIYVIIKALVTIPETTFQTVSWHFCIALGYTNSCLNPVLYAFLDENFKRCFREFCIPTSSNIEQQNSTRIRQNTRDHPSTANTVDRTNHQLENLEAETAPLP

CCCCCC(CC(=O)CCc1ccc(O)c(OC)c1)SC[C@H](NC(=O)CC[C@H](N)C(=O)O)C(=O)NCC(=O)O (some centres unmarked) [M13, 5-glutathione-6-shogaol]
fold by which IC50 against HIEC-6 is higher than against HC-CSC [1]: 5.8 fold
IC50 ([1]; HC-CSC): 17.4 µM
pKa1 (pKa determination): 3.24
pKa2 (pKa determination): 9.12
pKa3 (pKa determination): 10.42
kinetic solubility [2]: > 200 µM
pathological sign in the anatomical organs (CD-1 mice; single oral dose 1000 mg/kg, day 7): no pathological sign
body weight change, spleen-to-body weight ratio, blood physiological and biochemical indexes (CD-1 mice; single oral dose 1000 mg/kg, day 7, vs PBS control): no significant difference
death during the experiment (CD-1 mice; single oral dose 1000 mg/kg, female CD-1 mice, 7 days): did not observe any death
maximum tolerated dose (CD-1 mice; single oral dose, mice): > 1000 mg/kg
% Activity Data 1 (AHR-activation; repetition 1): 100%
% Activity Data 2 (AHR-activation; repetition 2): 101%
BCL-x expression vs. Control and statistical significance (Caco-2/BBe cells): Down-regulation, ^*
CCL20/MIP-3α expression vs. Control and statistical significance (Caco-2/BBe cells): Down-regulation, ^**
CEACAM-5 expression vs. Control and statistical significance (Caco-2/BBe cells): Down-regulation, ^*
CXCL8/IL-8 expression vs. Control and statistical significance (Caco-2/BBe cells): Down-regulation, ^*
CapG expression vs. Control and statistical significance (Caco-2/BBe cells): Down-regulation, ^*
Cathepsin B expression vs. Control and statistical significance (Caco-2/BBe cells): Down-regulation, ^*
Cathepsin D expression vs. Control and statistical significance (Caco-2/BBe cells): Down-regulation, ^*
Cathepsin S expression vs. Control and statistical significance (Caco-2/BBe cells): Down-regulation, ^**
Dkk-1 expression vs. Control and statistical significance (Caco-2/BBe cells): Down-regulation, ^**
EGFR expression vs. Control and statistical significance (Caco-2/BBe cells): Down-regulation, ^*
Enolase 2 expression vs. Control and statistical significance (Caco-2/BBe cells): Down-regulation, ^*
ErbB2/Her2 expression vs. Control and statistical significance (Caco-2/BBe cells): Down-regulation, ^**
ErbB3/Her3 expression vs. Control and statistical significance (Caco-2/BBe cells): Down-regulation, ^***
Galectin-3 expression vs. Control and statistical significance (Caco-2/BBe cells): Down-regulation, *
HNF-3β expression vs. Control and statistical significance (Caco-2/BBe cells): Down-regulation, ^**
HO-1/HMOX1 expression vs. Control and statistical significance (Caco-2/BBe cells): Down-regulation, ^***
P27/Kip1 expression vs. Control and statistical significance (Caco-2/BBe cells): Down-regulation, ^**
PDGF-AA expression vs. Control and statistical significance (Caco-2/BBe cells): Down-regulation, ^*
Progranulin expression vs. Control and statistical significance (Caco-2/BBe cells): Down-regulation, ^*
Prostasin/Prss8 expression vs. Control and statistical significance (Caco-2/BBe cells): Down-regulation, ^*
Survivin expression vs. Control and statistical significance (Caco-2/BBe cells): Down-regulation, ^***
TROP1/EpCAM expression vs. Control and statistical significance (Caco-2/BBe cells): Down-regulation, ^***
% Activity Data 1 (Thrombin alpha; repetition 1): 96%
% Activity Data 2 (Thrombin alpha; repetition 2): 97%
% Activity Data 1 (Opioid mu; repetition 1): 98%
% Activity Data 2 (Opioid mu; repetition 2): 96%
